Reference: patent US20060074243A1, “Hydroxamic acid and amide compounds and their use as protease inhibitors” (Pharmacia Corporation, priority 2002, published 2006)

Assays:
Experiment in all cases: In vitro MMP inhibition analysis (fluorogenic peptide substrate cleavage), Ki
Format in all cases: biochemical
Details in all cases: Table 2
Human recombinant MMP-14 = target: T1, Human recombinant MMP-14 (Homo sapiens, UniProt P50281)
T1 construct: The catalytic domain enzyme was expressed in E. coli inclusion bodies, solubilized in urea; made in house
Procedure, shortened: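 Refolded catalytic domain of MMP-14 expressed in E. coli, activated with APMA or trypsin, incubated 1 h at room temperature with 4 μM MCA-peptide substrate in Tris buffer pH 7.5 with CaCl2. Cleavage rate followed by fluorescence (ex 330/em 420 nm). Ki from Morrison-equation fit; substrate at or below Km, so no substrate correction.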

Human recombinant MMP-9 = target: T2, Human recombinant MMP-9 (Homo sapiens, UniProt P14780)
T2 construct: made in house; host or cells: MMP-9-transfected HT1080 cells (spent media)
T2 sequence (P14780 107-707 limits assumed): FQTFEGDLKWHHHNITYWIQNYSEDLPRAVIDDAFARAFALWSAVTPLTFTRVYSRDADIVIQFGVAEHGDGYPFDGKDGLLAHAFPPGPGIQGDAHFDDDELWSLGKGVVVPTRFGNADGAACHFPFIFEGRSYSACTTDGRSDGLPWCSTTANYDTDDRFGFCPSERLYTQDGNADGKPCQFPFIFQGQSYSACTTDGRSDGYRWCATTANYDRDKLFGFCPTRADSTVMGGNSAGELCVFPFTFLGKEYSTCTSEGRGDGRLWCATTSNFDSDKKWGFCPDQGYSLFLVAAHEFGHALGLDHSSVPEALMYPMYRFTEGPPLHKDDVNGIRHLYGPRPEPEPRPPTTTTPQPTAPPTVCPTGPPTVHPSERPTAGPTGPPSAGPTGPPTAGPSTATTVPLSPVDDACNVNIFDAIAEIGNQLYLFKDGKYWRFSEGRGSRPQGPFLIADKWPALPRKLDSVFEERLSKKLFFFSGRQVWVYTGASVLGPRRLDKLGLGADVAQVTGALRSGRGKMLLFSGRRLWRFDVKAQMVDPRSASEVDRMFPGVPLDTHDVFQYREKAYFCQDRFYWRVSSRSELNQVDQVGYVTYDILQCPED
Procedure, shortened: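 Recombinant MMP-9 purified from transfected HT1080 cell media, activated with APMA, trypsin or recombinant MMP-3, assayed in Tris buffer pH 7.5 with CaCl2 and 4 μM fluorogenic MCA/Dpa peptide, 1 h at room temperature (ex 330/em 420 nm). Ki from Morrison-equation regression of velocity; substrate at or below Km, uncorrected.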

Human recombinant MMP-1 = target: T3, Human recombinant MMP-1 (Homo sapiens, UniProt P03956)
T3 construct: made in house; host or cells: MMP-1-transfected HT-1080 cells (spent media)
T3 sequence (P03956 100-469): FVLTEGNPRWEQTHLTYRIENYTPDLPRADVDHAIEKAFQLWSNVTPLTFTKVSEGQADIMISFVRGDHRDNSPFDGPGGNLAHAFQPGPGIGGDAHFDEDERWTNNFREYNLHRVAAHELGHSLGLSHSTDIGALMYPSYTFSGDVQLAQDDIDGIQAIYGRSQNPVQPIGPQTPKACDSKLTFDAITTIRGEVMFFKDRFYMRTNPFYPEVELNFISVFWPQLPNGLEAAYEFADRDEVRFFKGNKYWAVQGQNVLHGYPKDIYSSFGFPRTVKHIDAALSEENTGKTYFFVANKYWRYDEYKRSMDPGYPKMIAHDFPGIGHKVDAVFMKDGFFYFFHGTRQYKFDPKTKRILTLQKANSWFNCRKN
Procedure, shortened: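 APMA- or trypsin-activated recombinant human MMP-1 (purified from transfected HT-1080 medium) with 4 μM MCA/Dpa quenched fluorogenic peptide, 1 h at room temperature in Tris/NaCl/CaCl2 buffer pH 7.5; fluorescence ex 330/em 420 nm. Ki from Morrison-equation fit of rates, substrate at or below Km, uncorrected.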

Q: How did the Ki (Human recombinant MMP-14) turn out when COCCOc1ccc(-c2ccc(S(=O)(=O)C3(C(=O)NO)CCN(C4CC4)CC3)cc2)cc1 [Example 113] was run?
A: Its Ki is 499 nM.

Q: What about the Ki (Human recombinant MMP-9) of the same compound?
A: The Ki was 0.732 nM.

Q: What about the Ki (Human recombinant MMP-1) of the same compound?
A: Its Ki is 2.91 µM.

Q: With CCN1CCC(C(=O)NO)(S(=O)(=O)c2ccc(-c3ccc(OCCOC)cc3)cc2)CC1 [Example 111] as the compound, how does the Ki (Human recombinant MMP-14) read?
A: The Ki was 1790 nM.

Q: And the Ki (Human recombinant MMP-9)?
A: The Ki was 3.3 nM.

Q: And the Ki (Human recombinant MMP-1)?
A: Its Ki is 7.36 µM.

Q: CCCCc1nc(-c2ccc(S(=O)(=O)C3(C(=O)NO)CCOCC3)cc2)no1 [Example 105] was tested. Which Ki (Human recombinant MMP-14) did it give?
A: The Ki was 1730 nM.

Q: And the Ki (Human recombinant MMP-9)?
A: Its Ki is 2.15 nM.

Q: And the Ki (Human recombinant MMP-1)?
A: The Ki was over 10 µM.

Q: With COCCN1CCC(C(=O)NO)(S(=O)(=O)c2ccc(-c3ccc(OCCN4CCCC4)cc3)cc2)CC1 [Example 72] as the compound, how does the Ki (Human recombinant MMP-14) read?
A: The Ki was 2280 nM.

Q: What about the Ki (Human recombinant MMP-9) of the same compound?
A: Its Ki is 12.9 nM.

Q: What about the Ki (Human recombinant MMP-1) of the same compound?
A: Its Ki is over 10 µM.

Q: How did the Ki (Human recombinant MMP-14) turn out when CCOCCOc1ccc(-c2ccc(S(=O)(=O)C3(C(=O)NO)CCN(CCOC)CC3)cc2)cc1 [Example 117] was run?
A: Its Ki is 1110 nM.

Q: What about the Ki (Human recombinant MMP-9) of the same compound?
A: The Ki was 3.93 nM.

Q: What about the Ki (Human recombinant MMP-1) of the same compound?
A: The Ki was 4.9 µM.

Q: Which results are given for CC(C)CCc1ccc(-c2ccc(S(=O)(=O)C3(C(=O)NO)CCOCC3)cc2)nc1 [Example 99]?
A: Ki (Human recombinant MMP-14): 421 nM; Ki (Human recombinant MMP-9): 0.211 nM; Ki (Human recombinant MMP-1): 3.08 µM

Q: COCCOc1ccc(-c2ccc(S(=O)(=O)C3(C(=O)NO)CCN(C4CC4)CC3)cc2)cc1F [Example 112] was tested. Which Ki (Human recombinant MMP-14) did it give?
A: Its Ki is 681 nM.

Q: What about the Ki (Human recombinant MMP-9) of the same compound?
A: The Ki was 2.21 nM.

Q: What about the Ki (Human recombinant MMP-1) of the same compound?
A: The Ki was 8.58 µM.

Q: Which results are given for CCN1CCC(C(=O)NO)(S(=O)(=O)c2ccc(-c3ccc(OCCOC)c(F)c3)cc2)CC1 [Example 110]?
A: Ki (Human recombinant MMP-14): 1850 nM; Ki (Human recombinant MMP-9): 11.2 nM; Ki (Human recombinant MMP-1): > 10 µM

Q: CC(C)CCOc1ccc(-c2ccc(S(=O)(=O)C3(C(=O)NO)CCOCC3)cc2)cc1 [Example 108] was tested. Which Ki (Human recombinant MMP-14) did it give?
A: The Ki was 744 nM.

Q: And the Ki (Human recombinant MMP-9)?
A: The Ki was 2.29 nM.

Q: And the Ki (Human recombinant MMP-1)?
A: Its Ki is 2.12 µM.

Q: Which results are given for COc1ccc(-c2ccc(S(=O)(=O)C3(C(=O)NO)CCOCC3)cc2)cc1F [Example 102]?
A: Ki (Human recombinant MMP-14): 11.1 nM; Ki (Human recombinant MMP-9): 1.01 nM; Ki (Human recombinant MMP-1): 0.669 µM

Q: With O=C(NO)C1(S(=O)(=O)c2ccc(-c3cnccn3)cc2)CCOCC1 [Example 71] as the compound, how does the Ki (Human recombinant MMP-14) read?
A: The Ki was 224 nM.

Q: What about the Ki (Human recombinant MMP-9) of the same compound?
A: The Ki was 42.8 nM.

Q: What about the Ki (Human recombinant MMP-1) of the same compound?
A: The Ki was 2.96 µM.

Q: CCCCCc1ccc(-c2ccc(S(=O)(=O)C3(C(=O)NO)CCOCC3)cc2)c(F)c1 [Example 101] was tested. Which Ki (Human recombinant MMP-14) did it give?
A: The Ki was 929 nM.

Q: And the Ki (Human recombinant MMP-9)?
A: The Ki was 3.05 nM.

Q: And the Ki (Human recombinant MMP-1)?
A: Its Ki is 9.03 µM.

Q: Which Ki (Human recombinant MMP-14) does the source give for COCCOc1ccc(-c2ccc(S(=O)(=O)C3(C(=O)NO)CCN(CCOC)CC3)cc2)cc1 [Example 115] here?
A: The Ki was 530 nM.

Q: And the Ki (Human recombinant MMP-9)?
A: The Ki was 1.22 nM.

Q: And the Ki (Human recombinant MMP-1)?
A: Its Ki is 3.37 µM.

Q: What does the source list for O=C(NO)C1(S(=O)(=O)c2ccc(-c3ccc(-c4ccccc4)cc3)cc2)CCOCC1 [Example 104]?
A: Ki (Human recombinant MMP-14): 247 nM; Ki (Human recombinant MMP-9): 0.074 nM; Ki (Human recombinant MMP-1): 6.91 µM

Q: COC(C)CCOc1ccc(-c2ccc(S(=O)(=O)C3(C(=O)NO)CCOCC3)cc2)cc1C(F)(F)F (stereo not drawn) [Example 100] was tested. Which Ki (Human recombinant MMP-14) did it give?
A: The Ki was over 10000 nM.

Q: What about the Ki (Human recombinant MMP-9) of the same compound?
A: Its Ki is 849 nM.

Q: What about the Ki (Human recombinant MMP-1) of the same compound?
A: Its Ki is over 10 µM.

Q: What does the source list for O=C(NO)C1(S(=O)(=O)c2ccc(-c3ccc(CCO)cc3)cc2)CCOCC1 [Example 98]?
A: Ki (Human recombinant MMP-14): 52.6 nM; Ki (Human recombinant MMP-9): 3.1 nM; Ki (Human recombinant MMP-1): 0.99 µM

Q: With COCCOc1ccc(-c2ccc(S(=O)(=O)C3(C(=O)NO)CCN(CCOC)CC3)cc2)cc1F [Example 114] as the compound, how does the Ki (Human recombinant MMP-14) read?
A: Its Ki is 585 nM.

Q: What about the Ki (Human recombinant MMP-9) of the same compound?
A: Its Ki is 2.77 nM.

Q: What about the Ki (Human recombinant MMP-1) of the same compound?
A: The Ki was 6.55 µM.

Q: Which results are given for CCOCCOc1ccc(-c2ccc(S(=O)(=O)C3(C(=O)NO)CCN(CC)CC3)cc2)cc1 [Example 116]?
A: Ki (Human recombinant MMP-14): 2930 nM; Ki (Human recombinant MMP-9): 9.39 nM; Ki (Human recombinant MMP-1): 8.94 µM

Q: Which results are given for CC(C)Cc1ccc(-c2ccc(S(=O)(=O)C3(C(=O)NO)CCOCC3)cc2)nc1 [Example 103]?
A: Ki (Human recombinant MMP-14): 342 nM; Ki (Human recombinant MMP-9): 1.38 nM; Ki (Human recombinant MMP-1): 2.32 µM
